According to patent US7169815B2, “3-methoxybenzyl thiourea derivatives and improved lipid compositions containing same” (The United States of America as represented by the …, priority 2000, dated 2007):
≈ marks a conversion by molar mass, not a printed value. Read-outs that look alike come from different tables or passages of the source.

Columns and labels:
[1] = UVB and UVA molar absorptivities in chloroform; assay type: physicochemical; details: 0.01 mg/ml in chloroform
Description: The compounds synthesized in Example 3 were tested to determine their ability to absorb […] UVA light. UV spectra of quantitatively weighed and diluted samples (0.01 mg/ml) in chloroform were scanned from 244–450 nm at 240 nm/min on a Beckman DU 640 spectrophotometer (Beckman Coulter, Inc., Fullerton, Calif.). Amax in the 280–320 nm range was determined and converted to molar absorptivity for the UVB region, and Amax in the 320–400 nm range was determined and converted to molar absorptivity for the UVA region.

[2] = Decomposition temperature by differential scanning calorimetry; assay type: physicochemical; details: DSC, onset of decrease in slope of temperature-heat flow curve; unit not given (scans in ° C.)
Description: A dual cell Perkin Elmer differential scanning calorimeter (PE DSC 7, Norwalk, Conn.) was used to determine the thermal transitions of the compounds. All scans were carried out from 30° C. to 200° C. at a heating and cooling rate of 10° C./minute and 40° C./min, respectively, except for 1-(3-methoxybenzyl)-3-(1-propenyl) thiourea, for which the scans were carried out from 0° C. to 200° C. at a heating rate of 10° C./min, and 1-(3-methoxybenzyl)-3-octadecyl thiourea, for which both the heating and cooling rates were 10° C./min. 1,3-di(3-methoxybenzyl) thiourea and 1-(3-methoxybenzyl)-3-dodecyl thiourea were heated to 300° C., and 1-(3-methoxybenzyl)-3-(4-methoxybenzoyl) thiourea was heated to 250° C. to determine the decomposition temperature. The decomposition temperature was taken as the onset of a decrease in the slope of the temperature-heat flow DSC curve. The first heating curve was recorded in all cases, and liquid nitrogen was used to quench the samples after the first heating.

[3] = Behaviour on addition of water to DMSO solution (sample preparation); assay type: physicochemical; details: dissolved in 50 μl DMSO, water added to make 1 mg/ml
Description: Test compounds (1–2 mg) were originally made up at a concentration of 1 mg/ml in artificial seawater, except for water insoluble compounds, which were dissolved in 50 μl of dimethyl sulfoxide (DMSO) prior to adding enough water to make a 1 mg/ml solution. Serial dilutions were performed in 100 μl of seawater in triplicate in the wells of a 96-well microplate to give appropriate concentrations. Control wells for both water and DMSO were included with each experiment. A 100 μl solution of naupli (10–30) was added to each well, and the covered plate was incubated for 24 h at 27° C. The number of non-motile, and the total number of, naupli were counted in each well using a binocular microscope (10×). LC50 values were then calculated by Probit analysis (Finney, D. J., 1971, “Probit Analysis,” 3rd Ed.; University Press: Cambridge [Eng.]).

[4] = Solubility in refined meadowfoam seed oil (HPLC); assay type: physicochemical; details: oil or lipid, thermodynamic from solid, cooled to room temperature overnight
Description: Typical retention times were 7–9 min for the thioureas. Samples were weighed accurately (about 0.1 g) into 1.00 g of refined meadowfoam seed oil and heated to temperature (either 30° C. or 50° C.) for 4 h with occasional shaking. The samples were cooled to room temperature overnight, centrifuged and 0.3 g of the supernatant oil was removed and diluted with 1 ml CHCl3 for testing.

[5] = tested on: Brine Shrimp (Artemia Salina); assay: in vivo; details: as Table 7 shows
Description: (§1) Brine shrimp eggs (Artemia salina) were obtained from Brine Shrimp Direct, Ogden, Utah and stored at 10° C. until used. Eggs (400 mg) were added to 1 l of deionized water containing 40 g of sea salts (Sigma Chemical Co., St. Louis, Mo.).
(§2) Serial dilutions were performed in 100 μl of seawater in triplicate in the wells of a 96-well microplate to give appropriate concentrations. Control wells for both water and DMSO were included with each experiment. […] The number of non-motile, and the total number of, naupli were counted in each well using a binocular microscope (10×).

in vivo = details: Artemia salina (brine shrimp), in vivo, other: exposure in seawater in microplate wells
Description: as §1, §2

[6] = Oxidative Stability by Rotating Pressure Vessel (RBOT) of refined meadowfoam seed oil plus thiourea compounds
Excerpt: Another presently preferred method of determining oxidative stability of lipids and oils employs the Oxidative Stability by Rotating Pressure Vessel (RBOT) test. In this test, oxidative stability, determined according to the ASTM D2272-98 test method (ASTM, 2001, “Standard Test Method for Oxidation Stability of Steam Turbine Oils by Rotating Pressure Vessel,” in Book of Standards, Vol. 05.01., American Society for Testing and Materials, West Conshohocken, Pa.), measures the time for oxygen pressure to decrease in a closed stainless steel vessel containing a lipid or oil when heated with a copper coil catalyst. Oxygen taken up by the lipid or oil during the reaction is an indication of oil degradation.
In these experiments, Oxidative Stability by Rotating Pressure Vessel (RBOT) tests were performed with different 3-methoxybenzyl thiourea compounds synthesized in Example 3 that were mixed in different quantities with different mono- and polyunsaturated vegetable oils. Hexane was used to clean and store the copper coils, but all other aspects of the Oxidative Stability by Rotating Pressure Vessel (RBOT) test were the same as in the standard ASTM D2272–98 test method (ASTM, 2001, “Standard Test Method for Oxidation Stability of Steam Turbine Oils by Rotating Pressure Vessel,” in Book of Standards, Vol. 05.01., American Society for Testing and Materials, West Conshohocken, Pa.).

## CCCCCCCCNC(=S)NCc1cccc(OC)c1 [1-(3-methoxybenzyl)-3-octyl thiourea]
[1]; Amax in 280–320 nm
  UVBMAX Molar Absorptivity: 2999
[1]; Amax in 320–400 nm
  UVAMAX Molar Absorptivity: 0.0
[2]
  Decomposition Temperature: > 200 °C
[3]
  behaviour upon the addition of water: precipitated out of solution
[4]; heated to 30° C. for 4 h, read-out: Solubility at 30° C.
  solubility at 4 h: 3070 µg/mL (≈ 9.95 mM)
[4]; heated to 50° C. for 4 h, read-out: Solubility at 50° C.
  solubility at 4 h: 2490 µg/mL (≈ 8.07 mM)
[5]
  toxicity against brine shrimp, in words: low toxicity
In vivo
  LC50 at 24 h: 240 µg/mL (≈ 0.778 mM)
[6]; Refined Meadowfoam Seed Oil plus 0.1% compound
  Oxidative Stability (RBOT): 43 min
[6]; addition of 0.1% compound
  Oxidative stability in the RBOT test, in words: doubled
